Assay [1] addresses [^3 H]Spiroperidol Binding (Rattus norvegicus, UniProt P61169). In words: Inhibition of [^3 H]Spiroperidol Binding, receptor assay.
The subject of assay [2] is Brain Dopamine Synthesis in Rats. Description: % Reversal of Brain Dopamine Synthesis in Rats. The format is in vivo. Conditions: Rattus norvegicus, IP.
Assay [3] relates to Locomotor Activity in Mice. Description: Inhibition of Locomotor Activity in Mice. The format is in vivo. The conditions noted are these: Mus musculus, IP.

Each structure is given as a SMILES string. Read-outs that look alike come from different tables or passages of the source.

Our source for the IC50, inhibition in vivo and ED50 values is patent publication US5466698A, “Substituted tetrahydrophyridines and hydroxypiperidines as central nervous system agents” (Warner-Lambert Company, priority 1993, dated 1995).

Sequence of [^3 H]Spiroperidol Binding (P61169 whole entry): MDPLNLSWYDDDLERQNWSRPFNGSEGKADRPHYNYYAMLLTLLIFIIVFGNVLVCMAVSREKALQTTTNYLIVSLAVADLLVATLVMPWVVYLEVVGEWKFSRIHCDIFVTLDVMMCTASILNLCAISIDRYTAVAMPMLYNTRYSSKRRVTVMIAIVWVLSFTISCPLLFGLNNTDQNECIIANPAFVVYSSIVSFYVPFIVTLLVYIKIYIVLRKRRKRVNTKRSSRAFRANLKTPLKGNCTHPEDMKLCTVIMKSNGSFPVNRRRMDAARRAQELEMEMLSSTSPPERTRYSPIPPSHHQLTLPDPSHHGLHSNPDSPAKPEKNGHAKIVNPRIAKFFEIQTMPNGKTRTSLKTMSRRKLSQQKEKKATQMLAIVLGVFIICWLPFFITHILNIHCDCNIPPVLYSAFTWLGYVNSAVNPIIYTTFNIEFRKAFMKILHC

One may read the IC50 as the concentration needed to halve the response being measured. The term inhibition in vivo denotes how much of the control response was suppressed. In turn, `C(#Cc1cnc2ccccc2c1)CCN1CC=C(c2ccccc2)CC1` [Example 1, 3-[4-(3,6-Dihydro-4-phenyl-1(2H)-pyridinyl)-1-butynyl]quinoline] had an IC50 in assay [1] of 41 nM. The inhibition in vivo at 10 mg/kg in assay [2] came to 28%.
Broadly, the ED50 is the midpoint of the dose-response relation. Higher therefore signals a need for a large dose. With `C(#Cc1cncc2ccccc12)CCN1CC=C(c2ccccc2)CC1` [Example 2, 4-[4-(3,6-Dihydro-4-phenyl-1(2H)-pyridinyl)-1-butynyl]isoquinoline], it took a dose of 2.1 mg/kg to reach the 50% effect level in assay [3] (ED50). The compound also showed an IC50 in assay [1] of 101 nM. For the same compound, the inhibition in vivo at 10 mg/kg in assay [2] worked out at 32%.
For `C(#Cc1cccnc1)CCN1CC=C(c2cccs2)CC1` [Example 3, 3-[4-[3,6-Dihydro-4-(2-thienyl)-1(2H)-pyridinyl]-1-butynyl]pyridine], in that order: 0.54 mg/kg, 354 nM and 53%.
`C(#Cc1cccnc1)CCN1CC=C(c2ccccc2)CC1` [Example 4, 3-[4-(3,6-Dihydro-4-phenyl-1(2H)-pyridinyl)-1-butynyl]pyridine]: the ED50 in assay [3] was 0.07 mg/kg. In assay [1], this compound displayed an IC50 of 50 nM. Further, the inhibition in vivo at 10 mg/kg in assay [2] came out at 79%.
Regarding `C(#Cc1cnc2ccccc2c1)CCCN1CC=C(c2ccccc2)CC1` [Example 6, 3-[5-(3,6-Dihydro-4-phenyl-1(2H)-pyridinyl)-1-pentynyl]quinoline], it took a dose of 3.6 mg/kg to reach the 50% effect level in assay [3] (ED50).
The compound `C(#Cc1cccnc1)CCCN1CC=C(c2ccccc2)CC1` [Example 7, 3-[5-(3,6-Dihydro-4-phenyl-1(2H)-pyridinyl)-1-pentynyl]pyridine] came in with an ED50 in assay [3] of 0.72 mg/kg. Moreover, the IC50 in assay [1] is 77.2 nM. Further, the inhibition in vivo at 10 mg/kg in assay [2] was found to be 48%.
In assay [3], `C(#Cc1cccnc1)CCCN1CC=C(c2cccs2)CC1` [Example 8, 3-[5-[3,6-Dihydro-4-(2-thienyl)-1(2H)-pyridinyl]-1-pentynyl]pyridine] registered an ED50 of 2.7 mg/kg. In assay [1], this compound had an IC50 of 209 nM.
For `O=[N+]([O-])c1ccc(C#CCCN2CC=C(c3ccccc3)CC2)nc1` [Example 9, 1,2,3,6-Tetrahydro-1-[4-(5-nitro-2-pyridinyl)-3-butynyl]-4-phenylpyridine], in that order: 6.9 mg/kg and 229 nM.
Turning to `O=[N+]([O-])c1ccc(C#CCCN2CC=C(c3ccccc3)CC2)cc1` [Example 10, 1,2,3,6-Tetrahydro-1-[4-(4-nitrophenyl)-3-butynyl]-4-phenylpyridine], in assay [3], it took a dose of 2.6 mg/kg to reach the 50% effect level (ED50). Besides, the IC50 in assay [1] is 394 nM. Moreover, in assay [2], the inhibition in vivo at 10 mg/kg was 42%.
For `C(#Cc1ccncc1)CCN1CC=C(c2ccccc2)CC1` [Example 11, 4-[4-(3,6-Dihydro-4-phenyl-1(2H)-pyridinyl)-1-butynyl]pyridine], in that order: 0.1 mg/kg, 43.4 nM and 79%.
For `Nc1ccc(C#CCCN2CC=C(c3cccs3)CC2)nc1` [Example 12, 6-[4-[3,6-Dihydro-4-(2-thienyl)-1(2H)-pyridinyl]-1-butynyl]-3-pyridinamine], in that order: 0.36 mg/kg, 321 nM and 46%.
In assay [3], `CN(C)c1ccc(C#CCCN2CC=C(c3ccccc3)CC2)nc1` [Example 13, 6-[4-(3,6-Dihydro-4-phenyl-1(2H)-pyridinyl)-1-butynyl]-N,N-dimethyl-3-pyridinamine] had an ED50 of 0.28 mg/kg. For the same compound, in assay [1], the IC50 is 192 nM. For the same compound, in assay [2], the inhibition in vivo at 10 mg/kg turned out to be 49%.
In turn, `C(#Cc1ccccn1)CCN1CC=C(c2ccccc2)CC1` [Example 14, 1,2,3,6-Tetrahydro-4-phenyl-1-[4-(2-pyridinyl)-3-butynyl]pyridine] gave an ED50 in assay [3] of 2.1 mg/kg. In addition, in assay [1], the IC50 was 189 nM. Besides, the inhibition in vivo at 10 mg/kg in assay [2] is 23%.
Take `C(#Cc1ccc2[nH]ccc2c1)CCN1CC=C(c2ccccc2)CC1` [Example 15, 5-[4-(3,6-Dihydro-4-phenyl-1(2H)-pyridinyl)-1-butynyl]-1H-indole]: the 50% effective dose (ED50) in assay [3] worked out at 1 mg/kg. In assay [1], the IC50 worked out at 78 nM.
The like results for `C(#Cc1cccs1)CCN1CC=C(c2ccccc2)CC1` [Example 16, 1,2,3,6-Tetrahydro-4-phenyl-1-[4-(2-thienyl)-3-butynyl]pyridine] were, in that order, 7.6 mg/kg and 115 nM.
As for `Nc1ccc(C#CCCN2CC=C(c3ccc(F)cc3)CC2)cn1` [Example 17, 5-[4-[4-(4-Fluorophenyl)-3,6-dihydro-1(2H)-pyridinyl]-1-butynyl]-2-pyridinamine], the ED50 in assay [3] turned out to be 1.2 mg/kg. In assay [1], the IC50 is 376 nM. In assay [2], the inhibition in vivo at 10 mg/kg came out at 40%.
For `Nc1ccc(C#CCCN2CC=C(c3ccccc3)CC2)nc1` [Example 19, 6-[4-(3,6-Dihydro-4-phenyl-1(2H)-pyridinyl)-1-butynyl]-3-pyridinamine], in that order: 0.15 mg/kg, 85 nM and 59%.
Turning to `Nc1ccc(C#CCCN2CC=C(c3ccccc3)CC2)cc1` [Example 20, 4-[4-(3,6-Dihydro-4-phenyl-1(2H)-pyridinyl)-1-butynyl]benzenamine], the 50% effect level in assay [3] (ED50) was put at a dose of 0.36 mg/kg. In assay [1], this compound yielded a concentration for half-maximal inhibition (IC50) of 431 nM. For the same compound, the inhibition in vivo at 10 mg/kg in assay [2] was determined as 51%.
The like results for `Nc1ccc(C#CCCN2CC=C(c3ccccc3)CC2)cn1` [Example 21, 5-[4-(3,6-Dihydro-4-phenyl-1(2H)-pyridinyl)-1-butynyl]-2-pyridinamine] were, in that order, 0.07 mg/kg, 25 nM and 65%.
The like results for `CC(=O)Nc1ccc(C#CCCN2CC=C(c3ccccc3)CC2)nc1` [Example 22, N-[6-[4-(3,6-Dihydro-4-phenyl-1(2H)-pyridinyl)-1-butynyl]-3-pyridinyl]acetamide] were, in that order, 0.07 mg/kg, 70 nM and 5%.
In assay [3], `O=C(Nc1ccc(C#CCCN2CC=C(c3ccccc3)CC2)nc1)c1cccs1` [Example 23, N-[6-[4-(3,6-Dihydro-4-phenyl-1(2H)-pyridinyl)-1-butynyl]-3-pyridinyl]-2-thiophenecarboxamide] displayed an ED50 of 1.5 mg/kg. Also, the IC50 in assay [1] turned out to be 1090 nM. Moreover, in assay [2], the inhibition in vivo at 10 mg/kg amounted to 0%.
Take `CC(=O)Nc1ccc(C#CCCN2CC=C(c3ccccc3)CC2)cc1` [Example 24, N-[4-[4-(3,6-Dihydro-4-phenyl-1(2H)-pyridinyl)-1-butynyl]phenyl]acetamide]: it took a dose of 0.23 mg/kg to reach the 50% effect level in assay [3] (ED50). In assay [1], this compound returned an IC50 of 50 nM.
The compound `CC(=O)Nc1ccc(C#CCCN2CC=C(c3ccccc3)CC2)cn1` [Example 25, N-[5-[4-(3,6-Dihydro-4-phenyl-1(2H)-pyridinyl)-1-butynyl]-2-pyridinyl]acetamide] had an ED50 in assay [3] of 0.16 mg/kg.
`CNc1ccc(C#CCCN2CC=C(c3ccccc3)CC2)nc1` [Example 26, 6-[4-(3,6-Dihydro-4-phenyl-1(2H)-pyridinyl)-1-butynyl]-N-methyl-3-pyridinamine]: in assay [3], the ED50 stood at 0.22 mg/kg. This compound registered an IC50 in assay [1] of 138 nM. Further, in assay [2], the inhibition in vivo at 10 mg/kg is 0%.
Consider `CNc1ccc(C#CCCN2CC=C(c3ccccc3)CC2)cc1` [Example 27, 4-[4-(3,6-Dihydro-4-phenyl-1(2H)-pyridinyl)-1-butynyl]-N-methylbenzenamine], for which the 50% effect level in assay [3] (ED50) was put at a dose of 0.56 mg/kg. This compound showed an IC50 in assay [1] of 129 nM. Further, the inhibition in vivo at 10 mg/kg in assay [2] turned out to be 45%.
In the case of `CNc1ccc(C#CCCN2CC=C(c3ccc(F)cc3)CC2)cn1` [Example 28, 5-[4-[4-(9-Fluorophenyl)-3,6-dihydro-1(2H)-pyridinyl]-1-butynyl]-N-methyl-2-pyridinamine], in assay [3], the 50% effect level (ED50) was put at a dose of 0.6 mg/kg. The IC50 in assay [1] (read-out: Inhibition of [^3 H]Spiroperidol Binding IC50, [^3 H]spiroperidol radioligand) came out at 1270 nM. The inhibition in vivo at 10 mg/kg in assay [2] was found to be 57%.
For `CNc1ccc(C#CCCN2CC=C(c3ccccc3)CC2)cn1` [Example 29, 5-[4-(3,6-Dihydro-4-phenyl-1(2H)-pyridinyl)-1-butynyl]-N-methyl-2-pyridinamine], the ED50 in assay [3] turned out to be 6.1 mg/kg. The compound further displayed an IC50 in assay [1] of 77 nM. The inhibition in vivo at 10 mg/kg in assay [2] stood at 42%.
Compound `CCCNc1ccc(C#CCCN2CC=C(c3ccccc3)CC2)nc1` [Example 30, 6-[4-(3,6-Dihydro-4-phenyl-1(2H)-pyridinyl)-1-butynyl]-N-propyl-3-pyridinamine] displayed an ED50 in assay [3] of 0.31 mg/kg. Also, the IC50 in assay [1] was 248 nM.
Turning to `CS(=O)(=O)N(c1ccc(C#CCCN2CC=C(c3ccccc3)CC2)nc1)S(C)(=O)=O` [Example 31, N-(Methylsulfonyl)-N-[6-[4-(3,6-dihydro-4-phenyl-1(2H)-pyridinyl)-1-butynyl]-3-pyridinyl]methanesulfonamide], the 50% effect level in assay [3] (ED50) was put at a dose of 0.53 mg/kg. In addition, the IC50 in assay [1] was found to be 94 nM. The inhibition in vivo at 10 mg/kg in assay [2] is 0%.
On to `CS(=O)(=O)Nc1ccc(C#CCCN2CC=C(c3ccccc3)CC2)nc1` [Example 32, N-[6-[4-(3,6-Dihydro-4-phenyl-1(2H)-pyridinyl)-1-butynyl]-3-pyridinyl]methanesulfonamide], for which the ED50 in assay [3] came out at 1.1 mg/kg. Also, in assay [1], the IC50 came out at 64 nM.
